Measurements reported in US7402559B2, “Composition and method of treatment for urogenital conditions” (MSH Pharma, Incorporated, priority 1999, dated 2008).

Key:
[1] = relative to parent peptide or to the 11-13 sequence; cited from earlier work
[2] = system: C. albicans; assay: C. albicans colony formation (CFU viability); assay type: cell-based, Candida albicans; details: for C. albicans viability / effectiveness against C. albicans compared with fluconazole: FIG. 4; for effectiveness against C. albicans compared with fluconazole: 10^−6 to 10^−4 M, same molar concentration as fluconazole; for ability of C albicans to form colonies: FIG. 3, 10^−12 to 10^−4 M, p<0.01 vs. control
Description: Clinical isolates of C. albicans were obtained from the collection of the Department of Microbiology, Ospedale Maggiore di Milano. Cultures of C. albicans were maintained on Sabouraud's agar slants and periodically transferred to Sabouraud's agar plates and incubated for 48 hours at 28° C. To prepare stationary growth-phase yeast, a colony was taken from the agar plate, transferred into 30 ml of Sabouraud-dextrose broth, and incubated for 72 hours at 32° C. Cells were centrifuged at 1000× g for ten minutes, and the pellet was washed twice with distilled water. Cells were counted and suspended in Hank's balanced salt solution (“HBSS”) to the desired concentration.
Cells were then washed in cold distilled water and diluted with HBSS to a concentration of 100 organisms/ml. One-milliliter aliquots were then dispensed on blood agar plates and incubated for 48 hours at 37° C. The organism's viability was estimated from the number of colonies formed.
[…] The effects of forskolin and ddAdo on the ability of C. albicans to form colonies were determined according to the procedures described in Example II.

[3] = relative to L-form tripeptide alpha-MSH (11-13); cited from earlier work
[4] = system: C. albicans; assay: C. albicans germ tube formation induced by horse serum; assay type: cell-based, Candida albicans; details: 10^−6 M, 60 minutes at 37° C., germ tubes induced by horse serum
Description: C. albicans from stationary phase cultures were washed twice with distilled water and suspended in HBSS to a final concentration of 2×10^6/ml. Hyphal growth was induced by addition of 10% inactivated horse serum (GIBCO/BRL, Paisley, Great Britain) to yeast incubated for 45 minutes at 37° C. with continuous shaking. […] The percentage of filamentous cells was evaluated under a light microscope with the aid of a hemocytometer. Experiments were run in triplicate and at least 200 cells were scored. Photomicrographs were taken with a MC100 camera attached to an Axioskop Zeiss microscope.

[5] = system: S. aureus (ATCC 29213); assay: S. aureus colony formation (viability); assay type: cell-based, Staphylococcus aureus; details: FIG. 1; significant at peptide concentrations of 10^−12 to 10^−4 M; 2 h at 37° C.
Description: (§1) Cultures of S. aureus (ATCC 29213) were obtained from the collection of the Department of Microbiology, Ospedale Maggiore di Milano. […] Cells were then washed in cold distilled water and diluted with HBSS to a concentration of 100 organisms/ml. One-milliliter aliquots were dispensed on blood agar plates and incubated for 24 hours at 37° C. Viability of the microorganisms was estimated from the colonies formed. In another set of experiments, 500 units of urokinase, a S. aureus growth enhancer, were also incubated with the bacteria (10^5/100 ml ) for four hours at 37° C. in a shaking water bath together with the peptides.

[6] = system: C. albicans; assay: cAMP content in permeabilized C. albicans (enzyme immunoassay); assay type: cell-based, Candida albicans; details: FIG. 7; 10^−6 M, three minutes
Description: The reactions were stopped after three minutes by the addition of ice cold ethanol. cAMP levels were measured in duplicate using a commercial enzyme immunoassay kit (Amersham, United Kingdom) after extraction via the liquid-phase method according to the manufacturer's instructions.

[7] = system: NF-κB
Description: Cells were washed once with cold PBS, and twice with buffer A (10 mM Hepes pH 7.9, 1.5 mM MgCl2, 10 mM KCl, 0.5 mM PMSF and 0.5 mM DTT), centrifuged, and incubated for ten minutes on ice in buffer A plus 0.1% NP-40. Afterwards, the supernatants were removed, and the nuclear pellets were resuspended in 15 μl of buffer C (20 mM Hepes pH 7.9, 1.5 mM MgCl2, 0.42 M KCl, 0.2 mM EDTA, 25% glycerol, 0.5 mM PMSF, and 0.5 mM DTT), incubated for 15 minutes on ice, mixed, and then centrifuged. The supernatants were diluted with 75 μl of modified buffer D (20 mM Hepes, pH 7.9, 0.05 mM KCl, 0.2 mM EDTA, 20% glycerol, 0.5 mM PMSF, and 0.5 mM DTT) and stored at −80° C. […] Each oligonucleotide was annealed to its complementary strand and end-labeled with ^32P-γ-ATP using polynucleotide kinase. For the determination of specific bands, nuclear extracts were first incubated with 100 fold excess unlabeled probe for five minutes, before incubation with a labeled probe. […] The gels were dried and autoradiographed.

[8] = system: HIV-1 RNA; details: FIG. 12; PMA stimulated U1 cells
[9] = system: HIV-1; details: FIG. 11; 10^−5 M
Text: (§2) The chronically HIV-1 infected promonocytic U1 cell line is an in vitro model of latent HIV infection in monocytes. These cells carry two integrated proviral copies of HIV, and constitutive expression of HIV is very low. Viral replication, however, as measured by RNA transcription, p24 antigen, or reverse transcriptase release, can be activated with different stimuli such as TNF-α, IL-6, IL-10, PMA or crowding of cells.
(§3) Crowding was achieved by seeding U1 cells at a density of 2×10^5/ml and maintaining them in culture at 37° C. in 5% CO2 without changing media for seven days. Cultures activated with cytokines or PMA were maintained for only 48 hours. Supernatants were then removed by centrifugation and assayed for p24 antigen using commercially available ELISA kits from Cellular Products, Inc. in Buffalo, N.Y., USA. Reverse transcriptase releases were also measured using a commercially available kit, ELISA Retrosys RT assay from Innovagen, Lund, Sweden.

[10] = system: C. albicans; assay: Neutrophil killing of C. albicans; assay type: cell-based, human neutrophils; Candida albicans; details: FIG. 6; 10^−12 to 10^−4 M; p<0.01
Description: Venous blood (20 ml) from healthy volunteers was anticoagulated with heparin. Neutrophils were then isolated using dextran sedimentation and centrifugation with Ficoll-Hypaque (Sigma Chemical Co., St. Louis, Mo., USA). Erythrocytes were lysed via hypotonic shock with the resulting neutrophils representing at least 97% of the cell suspension. Cell viability, estimated by trypan blue exclusion, was greater than 98%. Neutrophils were resuspended in HBSS for the experiments. […] After incubation, the culture tubes were placed on ice to stop growth, and extracellular organisms were washed twice with centrifugation at 1000-× g at 4° C. A 2.5% sodium deoxycholate solution was added to the suspension, and the tubes were shaken for five minutes. Cold distilled water was then added to obtain a suspension of 10^6 cells/ml. Two 1/100 serial dilutions in HBSS were made to obtain a final suspension of 100 cells/ml. One-milliliter aliquots were then dispensed on blood agar plates and incubated for 48 hours at 37° C. Colony forming units were counted at the end of the incubation period with experiments running in triplicate and repeated using blood from five different donors.

[11] = system: S. aureus; assay: Urokinase induced growth of S. aureus; assay type: cell-based, Staphylococcus aureus; details: FIG. 2; 10^−6 M peptide; 500 units urokinase, 4 h
Description: as §1

[12] = system: HIV-1; details: FIG. 10; broad range of concentrations; TNF-α 10 ng/ml
Text: as §2
Pilot experiments were first performed to determine optimal cell density, stimuli concentration, and kinetics of HIV-1 p24 antigen production using these culture conditions. Before use, cells were washed three times with HBSS to remove extracellular viruses.
as §3

## 8-13 sequence: alpha-MSH 8-13 fragment (RWGKPV; Designed polypeptide with anti-inflammatory, anti-microbial, anti-fungal, and anti-viral properties.)
[1]
  antipyretic potency: greater than that of the 11-13 sequence

## 9-13 sequence: alpha-MSH 9-13 fragment (WGKPV; Designed polypeptide with anti-inflammatory, anti-microbial, anti-fungal, and anti-viral properties.)
[1]
  antipyretic potency: almost devoid of activity

## 10-13 sequence: alpha-MSH (11-13) with glycine added to form the 10-13 sequence (GKPV; Designed pollypeptide with anti-inflammatory, anti-microbial, anti-fungal, and anti-viral properties.)
[1]
  antipyretic potency: slightly decreased potency

## ACTH (1-39): adrenocorticotropic hormone (1-39) (SYSMEHFRWGKPVGKKRRPVKVYPAGEDDEASEAFPLEF; Designed polypeptide with anti-inflammatory, anti-microbial, anti-fungal, and anti-viral properties/naturally occurring peptide.; listed as Homo sapiens) [reference compound]
[2]
  C. albicans viability: did not reduce

## ACTH fragment (18-39): ACTH fragment (18-39) (CLIP) (RPVKVYPAGEDDEASEAFPLEF; Designed polypeptide with anti-inflammatory, anti-microbial, anti-fungal, and anti-viral properties.) [reference compound]
[2]
  C. albicans viability: did not reduce

## Ac-[D-K11]-alpha-MSH 11-13-NH2 [reference compound]
[3]
  anti-inflammatory activity / general potency: same general potency

## HFRWGKPV (Ac-HFRWGKPV-NH2) [alpha-MSH (6-13)]
[2]
  effectiveness against C. albicans compared with fluconazole: most effective
[4]
  reduction in the number of filamentous cells: approximately 50%

## Lysine-Proline-Valine [alpha-MSH (11-13)]
[5]
  S. aureus colony formation: inhibited
[6]
  cAMP content in C. albicans: enhanced
[7]
  NF-κB activation, TNF-α stimulated cells: significantly reduced
  NF-κB activation, resting cells: did not alter
[8]
  transcription of spliced and unspliced HIV-1 RNA: inhibited
[9]
  reverse transcriptase release from U1 cells induced by IL-6, IL-10, PMA and in crowding condition: inhibited
[2]
  ability of C albicans to form colonies: greatly reduced
  effectiveness against C. albicans compared with fluconazole: most effective
[2]; FIG. 8, p<0.01
  growth of C. albicans relative to the control group: significantly inhibited
[10]
  neutrophil killing of C. albicans: enhanced
[11]
  growth enhancing effect of urokinase on S. aureus: significantly countered

## MEHFRWG [alpha-MSH sequence (4-10)]
[3]
  anti-inflammatory activity / general potency: little antipyretic and anti-inflammatory activity

## SYSMEHFRWGKPV [alpha-MSH (1-13)]
[5]
  S. aureus colony formation: inhibited
[6]
  cAMP content in C. albicans: enhanced
[2]
  ability of C albicans to form colonies: greatly reduced
  effectiveness against C. albicans compared with fluconazole: most effective
[10]
  neutrophil killing of C. albicans: enhanced
[4]
  reduction in the number of filamentous cells: 28-32%
[12]
  p24 antigen release from TNF-α stimulated U1 cells: significantly inhibited
[11]
  growth enhancing effect of urokinase on S. aureus: significantly countered

## [Nle^4, D-Phe^7]-alpha-MSH
[1]
  antipyretic potency: approximately ten times more potent

## dideoxyadenosine [ddAdo, reference compound]
[2]; FIG. 9, ddAdo 25, 50, and 100×10^−5 M for two hours, then peptides two hours
  effect of ddAdo on alpha-MSH (1-13) and (11-13) inhibition of C. albicans growth: reverse the effect
